PubChem BioAssay AID1918993 (Molecular Pharmacology Branch, DTP, NCI, 2023)

Tested on: 233499-124-R-J3-PDC complex spheroid growth
Assay: Anticancer human tumor 233499-124-R-J3-PDC patient-derived colon adenocarcinoma cell line growth inhibition [AhR]
Details: for IC50: curve of first compound; for viability, T/C: stronger effect = lower value
Method in brief: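 Complex tumor spheroids co-cultured with HUVEC and human MSC stroma; AhR antagonists tested in combination with standard-of-care and investigational agents. Top concentration at or near clinical Cmax (else 10 microM), half-log dilutions; growth expressed as percent test/control.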

[1] = second compound 0.1 µM, first compound 0.0316 µM
[2] = second compound 0.1 µM, first compound 0.1 µM
[3] = second compound 0.1 µM, first compound 0.316 µM
[4] = second compound 0.1 µM, first compound 1 µM
[5] = second compound 0.1 µM, first compound 3.16 µM
[6] = second compound 0.1 µM, first compound 10 µM
[7] = second compound 0.316 µM, first compound 0.0316 µM
[8] = second compound 0.316 µM, first compound 0.1 µM
[9] = second compound 0.316 µM, first compound 0.316 µM
[10] = second compound 0.316 µM, first compound 1 µM
[11] = second compound 0.316 µM, first compound 3.16 µM
[12] = second compound 0.316 µM, first compound 10 µM
[13] = second compound 1 µM, first compound 0.0316 µM
[14] = second compound 1 µM, first compound 0.1 µM
[15] = second compound 1 µM, first compound 0.316 µM
[16] = second compound 1 µM, first compound 1 µM
[17] = second compound 1 µM, first compound 3.16 µM
[18] = second compound 1 µM, first compound 10 µM
[19] = second compound 3.16 µM, first compound 0.0316 µM
[20] = second compound 3.16 µM, first compound 0.1 µM
[21] = second compound 3.16 µM, first compound 0.316 µM
[22] = second compound 3.16 µM, first compound 1 µM
[23] = second compound 3.16 µM, first compound 3.16 µM
[24] = second compound 3.16 µM, first compound 10 µM
[25] = second compound 10 µM, first compound 0.0316 µM
[26] = second compound 10 µM, first compound 0.1 µM
[27] = second compound 10 µM, first compound 0.316 µM
[28] = second compound 10 µM, first compound 1 µM
[29] = second compound 10 µM, first compound 3.16 µM
[30] = second compound 10 µM, first compound 10 µM
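Note: spheroids exposed to agents for seven days before reading.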

CC(C)c1c(-c2ccccc2)nc2c(C#N)c[nH]n2c1=O + Cc1cncc(-c2nc(NCCc3c[nH]c4ccccc34)c3ncn(C(C)C)c3n2)c1
IC50 (second compound 0.1 µM): > 10 µM
IC50 (second compound 0.316 µM): > 10 µM
IC50 (second compound 1 µM): > 10 µM
IC50 (second compound 3.16 µM): > 10 µM
IC50 (second compound 10 µM): < 0.0316 µM
viability, T/C [1]: 88.8%
viability, T/C [2]: 100%
viability, T/C [3]: 96.5%
viability, T/C [4]: 108%
viability, T/C [5]: 101%
viability, T/C [6]: 108%
viability, T/C [7]: 89.9%
viability, T/C [8]: 88.9%
viability, T/C [9]: 87.4%
viability, T/C [10]: 86.3%
viability, T/C [11]: 86.2%
viability, T/C [12]: 85.2%
viability, T/C [13]: 84.5%
viability, T/C [14]: 79.2%
viability, T/C [15]: 71.5%
viability, T/C [16]: 73.8%
viability, T/C [17]: 79.2%
viability, T/C [18]: 84%
viability, T/C [19]: 72.5%
viability, T/C [20]: 86.5%
viability, T/C [21]: 74.6%
viability, T/C [22]: 60.9%
viability, T/C [23]: 73.3%
viability, T/C [24]: 77.2%
viability, T/C [25]: 1.69%
viability, T/C [26]: 2.34%
viability, T/C [27]: 4.08%
viability, T/C [28]: 2.26%
viability, T/C [29]: 2.36%
viability, T/C [30]: 2.85%

CC1COCCN1c1cc(-c2ccnn2C)c2ccnc(-c3ccn[nH]3)c2n1 (stereo not given) + Cc1cncc(-c2nc(NCCc3c[nH]c4ccccc34)c3ncn(C(C)C)c3n2)c1
IC50 (second compound 0.1 µM): 0.546 µM
IC50 (second compound 0.316 µM): 0.525 µM
IC50 (second compound 1 µM): > 1 µM
IC50 (second compound 3.16 µM): 0.293 µM
IC50 (second compound 10 µM): < 0.00316 µM
viability, T/C (second compound 0.1 µM, first compound 0.00316 µM): 106%
viability, T/C (second compound 0.1 µM, first compound 0.01 µM): 89.7%
viability, T/C [1]: 102%
viability, T/C [2]: 74.6%
viability, T/C [3]: 62.6%
viability, T/C [4]: 37.8%
viability, T/C (second compound 0.316 µM, first compound 0.00316 µM): 85.3%
viability, T/C (second compound 0.316 µM, first compound 0.01 µM): 92.6%
viability, T/C [7]: 76.2%
viability, T/C [8]: 81.1%
viability, T/C [9]: 60.2%
viability, T/C [10]: 35.8%
viability, T/C (second compound 1 µM, first compound 0.00316 µM): 66.5%
viability, T/C (second compound 1 µM, first compound 0.01 µM): 63%
viability, T/C [13]: 69.3%
viability, T/C [14]: 72.9%
viability, T/C [15]: 53.5%
viability, T/C [16]: 50.2%
viability, T/C (second compound 3.16 µM, first compound 0.00316 µM): 66.7%
viability, T/C (second compound 3.16 µM, first compound 0.01 µM): 74.1%
viability, T/C [19]: 73.1%
viability, T/C [20]: 63.8%
viability, T/C [21]: 49.4%
viability, T/C [22]: 40.2%
viability, T/C (second compound 10 µM, first compound 0.00316 µM): 3.13%
viability, T/C (second compound 10 µM, first compound 0.01 µM): 3.32%
viability, T/C [25]: 3.34%
viability, T/C [26]: 4.58%
viability, T/C [27]: 3.11%
viability, T/C [28]: 5.96%

CC1COCCN1c1cc(C2(S(C)(=N)=O)CC2)nc(-c2ccnc3[nH]ccc23)n1 (stereo not given) + Cc1cncc(-c2nc(NCCc3c[nH]c4ccccc34)c3ncn(C(C)C)c3n2)c1
IC50 (second compound 0.1 µM): > 10 µM
IC50 (second compound 0.316 µM): > 10 µM
IC50 (second compound 1 µM): > 10 µM
IC50 (second compound 3.16 µM): > 10 µM
IC50 (second compound 10 µM): < 0.0316 µM
viability, T/C [1]: 99%
viability, T/C [2]: 90.3%
viability, T/C [3]: 95.1%
viability, T/C [4]: 95.1%
viability, T/C [5]: 93%
viability, T/C [6]: 81.2%
viability, T/C [7]: 80.7%
viability, T/C [8]: 71%
viability, T/C [9]: 61.6%
viability, T/C [10]: 91.2%
viability, T/C [11]: 92.7%
viability, T/C [12]: 78.1%
viability, T/C [13]: 73.9%
viability, T/C [14]: 70.1%
viability, T/C [15]: 78.7%
viability, T/C [16]: 77.2%
viability, T/C [17]: 63.3%
viability, T/C [18]: 64.7%
viability, T/C [19]: 81.8%
viability, T/C [20]: 76%
viability, T/C [21]: 81.8%
viability, T/C [22]: 83.1%
viability, T/C [23]: 71.3%
viability, T/C [24]: 59.7%
viability, T/C [25]: 11.2%
viability, T/C [26]: 14.3%
viability, T/C [27]: 20%
viability, T/C [28]: 15.1%
viability, T/C [29]: 14%
viability, T/C [30]: 11.1%

COc1ccc([C@@H](O)c2cc(-c3ncnc4cc(N5CCOCC5)ccc34)c(F)cc2Cl)nn1 + Cc1cncc(-c2nc(NCCc3c[nH]c4ccccc34)c3ncn(C(C)C)c3n2)c1
IC50 (second compound 0.1 µM): > 10 µM
IC50 (second compound 0.316 µM): > 10 µM
IC50 (second compound 1 µM): > 10 µM
IC50 (second compound 3.16 µM): > 10 µM
IC50 (second compound 10 µM): < 0.0316 µM
viability, T/C [1]: 87.6%
viability, T/C [2]: 82.5%
viability, T/C [3]: 84.5%
viability, T/C [4]: 90.5%
viability, T/C [5]: 70.3%
viability, T/C [6]: 64.1%
viability, T/C [7]: 95.3%
viability, T/C [8]: 77.3%
viability, T/C [9]: 79.8%
viability, T/C [10]: 64.5%
viability, T/C [11]: 70.4%
viability, T/C [12]: 67.7%
viability, T/C [13]: 75.7%
viability, T/C [14]: 73.3%
viability, T/C [15]: 65.7%
viability, T/C [16]: 66.4%
viability, T/C [17]: 60.8%
viability, T/C [18]: 67.5%
viability, T/C [19]: 74.2%
viability, T/C [20]: 72.7%
viability, T/C [21]: 68.1%
viability, T/C [22]: 69%
viability, T/C [23]: 61.4%
viability, T/C [24]: 71.7%
viability, T/C [25]: 1.87%
viability, T/C [26]: 1.89%
viability, T/C [27]: 4.9%
viability, T/C [28]: 2.28%
viability, T/C [29]: 1.45%
viability, T/C [30]: 4.49%

O=C(C=Cn1cnc(-c2cc(C(F)(F)F)cc(C(F)(F)F)c2)n1)NNc1cnccn1 + Cc1cncc(-c2nc(NCCc3c[nH]c4ccccc34)c3ncn(C(C)C)c3n2)c1
IC50 (second compound 0.1 µM): > 3 µM
IC50 (second compound 0.316 µM): > 3 µM
IC50 (second compound 1 µM): > 3 µM
IC50 (second compound 3.16 µM): > 3 µM
IC50 (second compound 10 µM): < 0.00949 µM
viability, T/C (second compound 0.1 µM, first compound 0.00949 µM): 99.6%
viability, T/C (second compound 0.1 µM, first compound 0.03 µM): 108%
viability, T/C (second compound 0.1 µM, first compound 0.0949 µM): 102%
viability, T/C (second compound 0.1 µM, first compound 0.3 µM): 89.3%
viability, T/C (second compound 0.1 µM, first compound 0.949 µM): 100%
viability, T/C (second compound 0.1 µM, first compound 3 µM): 68.2%
viability, T/C (second compound 0.316 µM, first compound 0.00949 µM): 98.5%
viability, T/C (second compound 0.316 µM, first compound 0.03 µM): 94.9%
viability, T/C (second compound 0.316 µM, first compound 0.0949 µM): 95.7%
viability, T/C (second compound 0.316 µM, first compound 0.3 µM): 106%
viability, T/C (second compound 0.316 µM, first compound 0.949 µM): 53.5%
viability, T/C (second compound 0.316 µM, first compound 3 µM): 54%
viability, T/C (second compound 1 µM, first compound 0.00949 µM): 88.5%
viability, T/C (second compound 1 µM, first compound 0.03 µM): 80.9%
viability, T/C (second compound 1 µM, first compound 0.0949 µM): 99.1%
viability, T/C (second compound 1 µM, first compound 0.3 µM): 96.3%
viability, T/C (second compound 1 µM, first compound 0.949 µM): 74%
viability, T/C (second compound 1 µM, first compound 3 µM): 58.3%
viability, T/C (second compound 3.16 µM, first compound 0.00949 µM): 76.3%
viability, T/C (second compound 3.16 µM, first compound 0.03 µM): 81.6%
viability, T/C (second compound 3.16 µM, first compound 0.0949 µM): 93.2%
viability, T/C (second compound 3.16 µM, first compound 0.3 µM): 87%
viability, T/C (second compound 3.16 µM, first compound 0.949 µM): 60.7%
viability, T/C (second compound 3.16 µM, first compound 3 µM): 59.6%
viability, T/C (second compound 10 µM, first compound 0.00949 µM): 21.2%
viability, T/C (second compound 10 µM, first compound 0.03 µM): 35.3%
viability, T/C (second compound 10 µM, first compound 0.0949 µM): 30.8%
viability, T/C (second compound 10 µM, first compound 0.3 µM): 22%
viability, T/C (second compound 10 µM, first compound 0.949 µM): 28.9%
viability, T/C (second compound 10 µM, first compound 3 µM): 25.1%
